Patent publication EP4803080A1, “METHOD FOR TREATING LEUKEMIA” (Shenzhen TargetRx Co., Ltd., priority 2023, dated 2025)

Test system: accelerated phase (AP) chronic myeloid leukemia (CML)
Assay: Phase I dose escalation and dose expansion clinical trial: efficacy in CML-AP subjects
Assay type: in vivo, humans
Text: This study is a single-arm, open-label, dose-escalation and dose-expansion Phase I clinical trial.
The dose-escalation phase of this trial consists of about 8 dose groups, with oral administration under fasting conditions. Subjects in all dose groups will receive a single dose on Day 1 (D1), followed by pharmacokinetic (PK) and tolerability observations. […] After entering the multiple-dose period, subjects in the first dose group will initially receive twice-daily (BID) dosing (if PK data from the single-dose period are available, the dosing frequency during the multiple-dose period may be adjusted based on the PK data). The dosing frequency for subjects in subsequent dose groups after entering the multiple-dose period will be determined based on available PK and tolerability data. Throughout the trial, dosing frequency for all subjects may be adjusted based on continuously updated safety and PK data.
A continuous reassessment method (CRM) based on the principle of the escalation with overdose control (EWOC) design will be used to recommend the next specific dose for each dose escalation, thereby completing dose escalation and determining the maximum tolerated dose (MTD). If both the investigator and sponsor believe that higher dose groups may offer better efficacy and manageable safety, the EWOC-based CRM method may be used to explore higher doses. All enrolled subjects will receive long-term treatment with the test drug and undergo evaluations for safety, tolerability, and preliminary efficacy.
After obtaining certain research data from the dose-escalation phase, the investigator may comprehensively consider safety, efficacy, and other information to decide whether to enroll additional subjects at the MTD and/or lower dose levels to determine the recommended Phase II dose (RP2D). Two to four suitable dosing regimens will be selected for expansion in the target population (including subjects enrolled at the target dose levels during the escalation phase).
A total of 8 dose groups were established: 10 mg bid, 20 mg bid, 40 mg bid, 80 mg bid, 40 mg qd, 80 mg qd, 160 mg qd, and 240 mg qd.
The dose expansion phase was conducted in the following 3 cohorts: • Cohort 1: Subjects with chronic phase (CP) chronic myeloid leukemia (CML) who had previously received at least ≥2 different TKIs and were T315I-negative. A total of 3 dose groups were established: 40 mg qd, 80 mg qd, and 240 mg qd; • Cohort 2: Subjects with chronic phase (CP) chronic myeloid leukemia (CML) who have previously received ≥1 TKI and were T315I-positive. A total of 2 dose groups were established: 40 mg qd and 240 mg qd; • Cohort 3: Subjects with accelerated phase (AP) chronic myeloid leukemia (CML) who have previously received ≥1 TKI, regardless of T315I positivity. A total of 1 dose group was established: 240 mg qd.

[1] = CML-AP subjects previously treated with ponatinib, olverembatinib, asciminib, and/or HS-10382, as of June 2, 2024
[2] = CML-AP subjects, all doses, 44 evaluable, as of August 24, 2023
[3] = CML-AP subjects, 42 evaluable, as of June 2, 2024
[4] = CML-AP subjects, as of August 24, 2023
[5] = CML-AP subjects, as of June 2, 2024
[6] = CML-AP, failed or intolerant to third or above generations of TKI therapy
[7] = CML-AP, failed or intolerant to third or above generations of TKI therapy, 28 evaluable
[8] = CML-AP, failed or intolerant to third or above generations of TKI therapy, Kaplan-Meier method
[9] = CML-AP, 10 mg BID, 1 evaluable subject, as of August 24, 2023
[10] = CML-AP, 20 mg BID, 3 evaluable subjects, as of August 24, 2023
[11] = CML-AP, 40 mg BID, 4 evaluable subjects, as of August 24, 2023
[12] = CML-AP, 40 mg QD, 2 evaluable subjects, as of August 24, 2023
[13] = CML-AP, 40 mg/day Total, 5 evaluable subjects, as of August 24, 2023
[14] = CML-AP, 80 mg BID, 0 evaluable subjects, as of August 24, 2023
[15] = CML-AP, 80 mg QD, 4 evaluable subjects, as of August 24, 2023
[16] = CML-AP, 80 mg/day Total, 8 evaluable subjects, as of August 24, 2023
[17] = CML-AP, 160 mg QD, 3 evaluable subjects, as of August 24, 2023
[18] = CML-AP, 160 mg/day Total, 3 evaluable subjects, as of August 24, 2023
[19] = CML-AP, 240 mg QD, 27 evaluable subjects, as of August 24, 2023
[20] = CML-AP, Total, all dose groups, 44 evaluable subjects, as of August 24, 2023

O=C(Nc1ccc(OC(F)(F)Cl)cc1)c1cnc(N2CC[C@@H](F)C2)c(-c2cnccn2)c1 [Compound A, (R)-N-(4-(chlorodifluoromethoxy)phenyl)-6-(3-fluoropyrrolidin-1-yl)-5-(pyrazin-2-yl)nicotinamide]
18-month cumulative incidence rate of CCyR [1]: 17%
18-month cumulative incidence rate of MCyR [1]: 23%
CCyR [2]: 18.2%
MCyR [2]: 34.1%
MMR [2]: 4.5%
MaHR (CML-AP subjects, all doses, 46 evaluable, as of August 24, 2023): 84.8%
CHR within 3 treatment cycles [3]: 79%
MaHR within 3 treatment cycles [3]: 83%
median time to MCyR [4]: 2.76 (0.95, 5.52) months
median time to MMR [4]: 5.54 (2.79, 8.28) months
18-month cumulative incidence of CCyR [5]: 30%
18-month cumulative incidence of MCyR [5]: 35%
18-month cumulative incidence of MMR [5]: 14%
median EFS [6]: 8.41 months
median PFS [6]: not reached
median duration of MaHR response [6]: not reached
median time to achieve CCyR [6]: 5.59 (4.16, 6.92) months
median time to achieve MCyR [6]: 2.69 (2.69, 5.55) months
CCyR [7]: 14.3%
MCyR [7]: 25.0%
MMR [7]: 3.6%
MaHR [7]: 78.6%
12-month EFS rate [8]: 42.5%
12-month PFS rate [8]: 79.9%
CCyR [9]: 0 n (%)
MCyR [9]: 0 n (%)
MMR [9]: 0 n (%)
MaHR [9]: 1 (100) n (%)
CCyR [10]: 1 (33.3) n (%)
MCyR [10]: 1 (33.3) n (%)
MMR [10]: 0 n (%)
MaHR [10]: 3 (100) n (%)
CCyR [11]: 0 n (%)
MCyR [11]: 1 (25.0) n (%)
MMR [11]: 0 n (%)
MaHR [11]: 3 (75.0) n (%)
CCyR [12]: 0 n (%)
MCyR [12]: 1 (50.0) n (%)
MMR [12]: 0 n (%)
MaHR [12]: 1 (50.0) n (%)
CCyR [13]: 1 (20.0) n (%)
MCyR [13]: 2 (40.0) n (%)
MMR [13]: 0 n (%)
MaHR [13]: 4 (80.0) n (%)
CCyR [14]: 0 n (%)
MCyR [14]: 0 n (%)
MMR [14]: 0 n (%)
MaHR [14]: 0 n (%)
CCyR [15]: 0 n (%)
MCyR [15]: 0 n (%)
MMR [15]: 0 n (%)
MaHR [15]: 3 (75.0) n (%)
CCyR [16]: 0 n (%)
MCyR [16]: 1 (12.5) n (%)
MMR [16]: 0 n (%)
MaHR [16]: 6 (75.0) n (%)
CCyR [17]: 0 n (%)
MCyR [17]: 1 (33.3) n (%)
MMR [17]: 0 n (%)
MaHR [17]: 3 (100) n (%)
CCyR [18]: 0 n (%)
MCyR [18]: 1 (33.3) n (%)
MMR [18]: 0 n (%)
MaHR [18]: 3 (100) n (%)
CCyR [19]: 7 (25.9) n (%)
MCyR [19]: 11 (40.7) n (%)
MMR [19]: 2 (7.4) n (%)
MaHR (CML-AP, 240 mg QD, 29 evaluable subjects, as of August 24, 2023): 25 (86.2) n (%)
CCyR [20]: 8 (18.2) n (%)
MCyR [20]: 15 (34.1) n (%)
MMR [20]: 2 (4.5) n (%)
MaHR (CML-AP, Total, all dose groups, 46 evaluable subjects, as of August 24, 2023): 39 (84.8) n (%)
